Results reported in patent US10155001B2, “RAC1 inhibitors for inducing bronchodilation” (INSERM (Institut National de la Sante et de la Recherche …, priority 2013, dated 2018).
“Also recorded” adds a separate entry of the source.

Experiments:
[1] = test system: AHR to methacholine in OVA-sensitized mice; experiment: Airway hyper-responsiveness to methacholine in OVA model of allergic asthma, plethysmography; settings: for metacholine-induced airway response: summary statement: compared with SM-Rac1-KO mice in the OVA-sensitized model of allergic asthma; for AHR to methacholine: OVA-sensitized mice, nebulized before methacholine challenge, FIG. 6, E (o/o)
Procedure: Analysis of airways responsiveness in vivo: Airway responsiveness was assessed in conscious, unrestrained mice using a barometric, whole-body plethysmography (EMKA Technologies) by recording respiratory pressure curves in response to inhaled methacholine (Sigma) at concentrations of 0-40 mg/ml for 1 min. Airway responsiveness was expressed in enhanced pause (Penh) units. The Penh values measured after stimulation were averaged and expressed as the fold-increase over baseline values. Alternatively, dynamic airway resistance was measured using a Flexivent® apparatus (SCIREQ). In this case, mice were anesthetized by a ketamine/xylazine solution, tracheotomized, paralyzed and immediately intubated, followed by mechanical ventilation. Respiratory frequency was set at 150 breaths/min. Increasing concentrations of methacholine (0-15 mg/mL) were administered via a nebulizer aerosol system (Aeroneb, Aerogen).
Allergic asthma induction: When indicated, asthma was induced in mice by intraperitoneal injections with ovalbumin (OVA) in alum (Sigma) at D0, D14 and D21. Mice were challenged at D27, D28 and D29 through intranasal route with aerosolized OVA (50 μg in phosphate-buffered saline). These OVA-sensitized mice were used as a model of in vivo chronic asthma. Control mice were sensitized with PBS/alum and then were challenged with PBS.

[2] = test system: bronchial rings from control and house dust mite (HDM)-sensitized mice; experiment: Contractile responses ex vivo of bronchial rings from control and house dust mite-sensitized mice; settings: bronchial rings from control and HDM-sensitized mice pre-treated with inhibitor; FIG. 7
Procedure: (§1) Analysis of airways reactivity ex vivo: Primary bronchi were cut in 2 mm-long rings and mounted on a multichannel isometric myograph (Danish Myo Technology) containing a Krebs-Henseleit solution (118.4 mM NaCl, 4.7 mM KCl, 2 mM CaCl2, 1.2 mM MgSO4, 1.2 mM KH2PO4, 25 mM NaHCO3 and 11 mM glucose). A pre-trension of 0.5 mN was applied and maintained all along the protocol. We constructed cumulative concentration-response curves in response to KCl and methacholine (Sigma). When indicated, we pretreated rings with EHT1864 (Sigma) or NSC23766 (Calbiochem) Rac1 inhibitors at 10 μM, 1 h before contraction. Chambers wire myograph were connected to a digital data recorder (MacLab/4e, AD Instruments) and recordings were analyzed using LabChart v7 software (AD Instruments).
Allergic asthma induction: House dust mite model (HDM) of chronic asthma was used. In this case, mice were sensitized on days D0, D7, D14 and D21 by skin application of 500 μg of total extract of HDM Der f (Stallergenes) in 20 μL of dimethylsulfoxyde (DMSO, Sigma-Aldrich) on the ears. DMSO was used as an irritant able to facilitate the allergen penetration. Intranasal challenges were performed with Der f (250 μg in phosphate-buffered saline 250) on D27 and D34. Mice were sacrificed on D35 for ex vivo analysis.

[3] = test system: methacholine-dependent bronchoconstriction; experiment: Airways responsiveness in vivo to inhaled methacholine, whole-body plethysmography, control (naive) mice; settings: nebulized 10 min before methacholine challenge, FIG. 3, B and FIG. 6, E (ap/ap)
[4] = test system: bronchial rings; experiment: Analysis of airways reactivity ex vivo: bronchial rings on isometric myograph; settings: bronchial rings from SM-Rac1-KO mice; FIG. 2, A and B
Procedure: as §1

Row | Compound | metacholine-induced airway response [1] | methacholine and KCl contractions (bronchial reactivity) [2] | AHR to methacholine [1] | methacholine-dependent bronchoconstriction (airway reactivity, Penh) [3] | KCl- and methacholine-induced contraction [4]
1 | O=c1cc(CN2CCOCC2)occ1OCCCCCSc1ccnc2cc(C(F)(F)F)ccc12 [EHT1864] | Same results have been obtained | methacholine and KCl contractions are inhibited in both group of bronchial rings; also recorded: bronchial reactivities of control and HDM sensitized-mice are similar | – | – | –
2 | CCN(CC)CCCC(C)Nc1nc(C)cc(Nc2ccc3nc(C)cc(N)c3c2)n1 (centres unmarked) [NSC23766] | Same results have been obtained | – | almost completely prevented the AHR to methacholine; also recorded: comparable to that of salbutamol treatment | prevented methacholine-dependent bronchoconstriction (FIG. 3, B) in a dose-dependent manner; also recorded: comparable to that of salbutamol treatment | absence of any effect
3 | CC(C)(C)NCC(O)c1ccc(O)c(CO)c1 (centres unmarked) [salbutamol] | – | – | effect of NSC23766 aerosol inhalation was comparable to that of salbutamol treatment | efficiency of NSC23766 aerosol inhalation is similar to that of salbutamol; also recorded: effect of NSC23766 aerosol inhalation was comparable to that of salbutamol treatment | –
